Key:
[1] = target: CTX-M-14 (Escherichia coli, UniProt Q9L5C7); assay: Ki, nitrocefin cleavage by purified enzyme, CTX-M-14; assay type: biochemical; settings: nitrocefin reporter substrate; read-out: Ki (CTX-M-14, NCF)
In short: (§1)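 Steps: enzyme plus inhibitor dilutions in reaction buffer; 10 min at room temperature; add nitrocefin; read absorbance at 490 nm each 10 sec for 10 min.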

[2] = target: KPC-2 (Klebsiella pneumoniae, UniProt Q9F663); assay: Ki, nitrocefin cleavage by purified enzyme, KPC-2; assay type: biochemical; settings: nitrocefin reporter substrate; read-out: Ki (KPC-2, NCF)
Chain of KPC-2 (Q9F663 25-293, looked up, species assumed): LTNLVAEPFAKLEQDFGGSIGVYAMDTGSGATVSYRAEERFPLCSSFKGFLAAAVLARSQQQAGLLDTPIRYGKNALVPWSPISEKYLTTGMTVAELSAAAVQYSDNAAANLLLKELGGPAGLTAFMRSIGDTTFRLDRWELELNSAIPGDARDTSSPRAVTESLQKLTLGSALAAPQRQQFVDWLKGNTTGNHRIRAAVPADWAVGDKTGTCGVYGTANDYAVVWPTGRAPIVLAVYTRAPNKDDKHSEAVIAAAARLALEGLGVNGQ
In short: as §1

[3] = tested on: EC1010 (CMY-6); assay: organism not typed; assay type: cell-based
[4] = Monomer content of pH adjusted aqueous solutions (LC-UV); assay type: physicochemical; settings: 1 mg/mL aqueous salt solution, pH adjusted to 7.6 to 8, LC-UV
Experimental: Boronic acid containing compounds are known to undergo oligomerization. The presence of oligomers can greatly complicate drug development, as they represent new chemical species whose content must be controlled and qualified by testing in toxoicology studies. The monomer content of compounds was evaluated by adjusting aqueous solutions to physiological pH at various concentrations. The monomer content of pH adjusted solutions was measured using LC-UV. Test compounds were weighed out into a 1.5 mL Eppendorf tube. A solution of water was prepared in 1.00 mg/mL, 10.0 mg/mL or 100 mg/mL concentrations of the compound based on active fraction. A volume 20 uL was subtracted to allow room for addition of acid or base to adjust pH. The solution pH was measured. The pH was then adjusted through addition of acid or base as necessary until the reading was in the 7.6 to 8 range. A final pH measurement was made after ensuring all the compound was in solution. The solution was injected onto LC-UV in 0.1 uL to 5 uL volume within less than half an hour after the time the sample was prepared. Elution was done using 0.1% TFA in water for mobile phase A and 0.085% TFA in methanol for mobile phase B on an Excel ACE 5 Super C18 2.1×100 mm column at 0.6 ml/min flow rate with 9 min gradient, 3.9 minute hold at 90% B and 18 minute run time. The absorption was measured at 220, 254 and 300 nm with a 4 nm bandwidth.

[5] = target: P99 (Enterobacter cloacae, UniProt P05364); assay: Ki, nitrocefin cleavage by purified enzyme, P99; assay type: biochemical; settings: nitrocefin reporter substrate; read-out: Ki (P99, NCF)
Chain of P99 (P05364 21-381): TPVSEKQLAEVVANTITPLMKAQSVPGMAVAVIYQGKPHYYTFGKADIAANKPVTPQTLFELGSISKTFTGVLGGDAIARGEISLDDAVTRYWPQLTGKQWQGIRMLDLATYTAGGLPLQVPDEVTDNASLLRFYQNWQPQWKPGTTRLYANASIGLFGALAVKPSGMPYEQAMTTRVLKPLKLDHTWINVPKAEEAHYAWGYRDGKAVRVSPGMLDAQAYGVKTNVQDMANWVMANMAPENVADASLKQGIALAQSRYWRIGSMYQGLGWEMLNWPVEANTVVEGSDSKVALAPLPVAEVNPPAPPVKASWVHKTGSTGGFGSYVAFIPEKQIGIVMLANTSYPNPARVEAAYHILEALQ
In short: as §1

[6] = tested on: ECL1002; assay: Tigemonam potentiation (MPC@4), ECL1002; assay type: cell-based; settings: BLI with tigemonam at 4 μg/mL
[7] = tested on: KP1009 (CTX-M-15); assay: Tigemonam potentiation (MPC@4), KP1009; assay type: cell-based; settings: BLI with tigemonam at 4 μg/mL
[8] = tested on: KP1005 (CTX-M-14); assay: Tigemonam potentiation (MPC@4), KP1005; assay type: cell-based; settings: BLI with tigemonam at 4 μg/mL
[9] = tested on: KP1004 (KPC-2); assay: Aztreonam potentiation (MPC@4), KP1004; assay type: cell-based; settings: BLI with aztreonam at 4 μg/mL
[10] = tested on: ECL1002; assay: Aztreonam potentiation (MPC@4), ECL1002; assay type: cell-based; settings: BLI with aztreonam at 4 μg/mL
[11] = tested on: ec308 (SHV-5); assay: Tigemonam potentiation (MPC@4), ec308; assay type: cell-based
[12] = target: SHV-12 (Klebsiella pneumoniae, UniProt P0AD64, E235K/G234S/L31Q); assay: Ki, nitrocefin cleavage by purified enzyme, SHV-12; assay type: biochemical; settings: nitrocefin reporter substrate; read-out: Ki (SHV-12, NCF)
Chain of SHV-12 (P0AD64 22-286 L31Q/G234S/E235K): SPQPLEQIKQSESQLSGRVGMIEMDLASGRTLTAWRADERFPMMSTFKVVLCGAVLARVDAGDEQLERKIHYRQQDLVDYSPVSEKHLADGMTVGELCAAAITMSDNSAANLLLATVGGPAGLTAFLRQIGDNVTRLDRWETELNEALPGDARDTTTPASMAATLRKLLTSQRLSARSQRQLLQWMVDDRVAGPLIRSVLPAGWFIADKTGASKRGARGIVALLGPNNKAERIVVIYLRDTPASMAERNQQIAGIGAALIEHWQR
In short: as §1

[13] = tested on: ec302 (TEM-10); assay: Aztreonam potentiation (MPC@4), ec302; assay type: cell-based; settings: BLI with aztreonam at 4 μg/mL
[14] = tested on: KP1004 (KPC-2); assay: Biapenem potentiation (MPC@1), KP1004; settings: BLI with biapenem at 1 μg/mL
[15] = target: Pa AmpC (Pseudomonas aeruginosa, UniProt P24735); assay: Ki, nitrocefin cleavage by purified enzyme, Pa AmpC; assay type: biochemical; settings: nitrocefin reporter substrate; read-out: Ki (Pa AmpC, NCF)
Chain of Pa AmpC (P24735 27-397): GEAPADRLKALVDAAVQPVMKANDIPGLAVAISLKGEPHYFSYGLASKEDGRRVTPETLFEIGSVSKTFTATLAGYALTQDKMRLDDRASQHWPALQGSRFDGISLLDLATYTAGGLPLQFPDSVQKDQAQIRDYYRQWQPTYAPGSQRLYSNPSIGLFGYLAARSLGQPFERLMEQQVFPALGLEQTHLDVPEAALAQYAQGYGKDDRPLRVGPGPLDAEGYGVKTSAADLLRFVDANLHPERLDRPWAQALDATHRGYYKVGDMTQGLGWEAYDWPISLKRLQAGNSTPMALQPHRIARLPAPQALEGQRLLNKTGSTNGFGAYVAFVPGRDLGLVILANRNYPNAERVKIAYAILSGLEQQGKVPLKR
In short: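 Absorbance at 490 nm, recorded every 10 sec for 10 min after nitrocefin addition, reported substrate cleavage. Inhibitor at various concentrations had first been incubated with purified enzyme for 10 min at room temperature, and Ki values were determined from these profiles.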

[16] = tested on: ec302 (TEM-10); assay: Tigemonam potentiation (MPC@4), ec302; assay type: cell-based
[17] = tested on: KP1009 (CTX-M-15); assay: organism not typed; assay type: cell-based
[18] = tested on: KP1005 (CTX-M-14); assay: Aztreonam potentiation (MPC@4), KP1005; assay type: cell-based; settings: BLI with aztreonam at 4 μg/mL
[19] = tested on: EC1010 (CMY-6); assay: Tigemonam potentiation (MPC@4), EC1010; assay type: cell-based; settings: BLI with tigemonam at 4 μg/mL
[20] = target: OXA-48 (Klebsiella pneumoniae, UniProt Q6XEC0); assay: Ki, nitrocefin cleavage by purified enzyme, OXA-48; assay type: biochemical; settings: nitrocefin reporter substrate; read-out: Ki (OXA-48, NCF)
Chain of OXA-48 (Q6XEC0 23-265, looked up, species assumed): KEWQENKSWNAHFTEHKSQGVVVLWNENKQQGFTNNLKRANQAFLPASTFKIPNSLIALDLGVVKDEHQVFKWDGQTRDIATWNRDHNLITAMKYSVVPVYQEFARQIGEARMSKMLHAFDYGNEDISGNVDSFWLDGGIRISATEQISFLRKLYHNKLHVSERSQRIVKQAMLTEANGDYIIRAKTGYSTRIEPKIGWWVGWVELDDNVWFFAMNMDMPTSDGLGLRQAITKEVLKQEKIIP
In short: as §1

[21] = tested on: KP1010 (SHV-12); assay: Tigemonam potentiation (MPC@4), KP1010; assay type: cell-based
[22] = tested on: KP1086 (OXA-48); assay: Biapenem potentiation (MPC@1), KP1086; settings: BLI with biapenem at 1 μg/mL

Chain of CTX-M-14 (Q9L5C7 29-291): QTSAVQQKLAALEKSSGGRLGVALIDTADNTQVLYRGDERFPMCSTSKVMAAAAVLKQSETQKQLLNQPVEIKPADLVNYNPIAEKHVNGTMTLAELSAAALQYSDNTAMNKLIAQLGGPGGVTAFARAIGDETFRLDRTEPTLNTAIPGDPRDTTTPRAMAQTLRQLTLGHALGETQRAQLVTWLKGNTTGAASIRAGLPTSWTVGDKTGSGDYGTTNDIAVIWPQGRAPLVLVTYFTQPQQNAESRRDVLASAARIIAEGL

SMILES | Ki [1] | Ki [2] | AZT MPC4 CMY-6 EC1010 [3] | Ki [5] | TIG MPC4 ECL1002 [6] | TIG MPC4 CTX-M-15 KP1009 [7] | TIG MPC4 CTX-M-14 KP1005 [8] | AZT MPC4 KPC-2 KP1004 [9] | AZT MPC4 ECL1002 [10] | TIG MPC4 SHV-5 ec308 [11] | Ki [12] | AZT MPC4 TEM-10 ec302 [13] | BPM MPC1 KP1004 KPC-2 [14] | Ki [15] | TIG MPC4 TEM-10 ec302 [16] | AZT MPC4 CTX-M-15 KP1009 [17] | AZT MPC4 CTX-M-14 KP1005 [18] | TIG MPC4 CMY-6 EC1010 [19] | Ki [20] | TIG MPC4 SHV-12 KP1010 [21] | further results
CSCC(=O)N[C@H]1Cc2ccc(SCC3CCNCC3)c(C(=O)O)c2OB1O [Compound 24, (R)-2-hydroxy-3-(2-(methylthio)acetamido)-7-(piperidin-4-ylmethylthio)-3,4-dihydro-2H-benzo[e][1,2]oxaborinine-8-carboxylic acid] | < 1 nM | > 10 nM | Y (key: X: MIC of less than 1 ng/mL; Y: MIC of 1 μg/mL to 10 μg/mL; Z: MIC of greater than 10 μg/mL) | > 10 nM | Y (MIC of 1 μg/mL to 10 μg/mL) | Y (MIC of 1 μg/mL to 10 μg/mL) | Y (MIC of 1 μg/mL to 10 μg/mL) | Y (MIC of 1 μg/mL to 10 μg/mL) | Y (MIC of 1 μg/mL to 10 μg/mL) | Y (key: X: MIC of less than 1 ng/mL; Y: MIC of 1 μg/mL to 10 μg/mL; Z: MIC of greater than 10 μg/mL) | 1 to 10 nM | Y (MIC of 1 μg/mL to 10 μg/mL) | X (MIC of less than 1 μg/mL) | > 10 nM | Z (key: X: MIC of less than 1 ng/mL; Y: MIC of 1 μg/mL to 10 μg/mL; Z: MIC of greater than 10 μg/mL) | Y (key: X: MIC of less than 1 ng/mL; Y: MIC of 1 μg/mL to 10 μg/mL; Z: MIC of greater than 10 μg/mL) | Y (MIC of 1 μg/mL to 10 μg/mL) | Y (MIC of 1 μg/mL to 10 μg/mL) | < 1 nM | X (key: X: MIC of less than 1 μg/mL; Y: MIC of 1 μg/mL to 10 μg/mL; Z: MIC of greater than 10 μg/mL) | % Monomer in 1 mg/mL salt solution [4]: 98.3%; BPM MPC1 OXA-48 KP1086 [22]: Z (MIC of greater than 10 μg/mL)
CSCC(=O)N[C@@H]1Cc2ccc(F)c(C(=O)O)c2OB1O [Compound 31, (S)-7-fluoro-2-hydroxy-3-(2-(methylthio)acetamido)-3,4-dihydro-2H-benzo[e][1,2]oxaborinine-8-carboxylic acid] | 1 to 10 nM | > 10 nM | Y (key: X: MIC of less than 1 ng/mL; Y: MIC of 1 μg/mL to 10 μg/mL; Z: MIC of greater than 10 μg/mL) | > 10 nM | X (MIC of less than 1 μg/mL) | Y (MIC of 1 μg/mL to 10 μg/mL) | Y (MIC of 1 μg/mL to 10 μg/mL) | Y (MIC of 1 μg/mL to 10 μg/mL) | Y (MIC of 1 μg/mL to 10 μg/mL) | X (key: X: MIC of less than 1 μg/mL; Y: MIC of 1 μg/mL to 10 μg/mL; Z: MIC of greater than 10 μg/mL) | < 1 nM | Y (MIC of 1 μg/mL to 10 μg/mL) | X (MIC of less than 1 μg/mL) | > 10 nM | Z (key: X: MIC of less than 1 ng/mL; Y: MIC of 1 μg/mL to 10 μg/mL; Z: MIC of greater than 10 μg/mL) | Y (key: X: MIC of less than 1 ng/mL; Y: MIC of 1 μg/mL to 10 μg/mL; Z: MIC of greater than 10 μg/mL) | Y (MIC of 1 μg/mL to 10 μg/mL) | Y (MIC of 1 μg/mL to 10 μg/mL) | 1 to 10 nM | X (key: X: MIC of less than 1 μg/mL; Y: MIC of 1 μg/mL to 10 μg/mL; Z: MIC of greater than 10 μg/mL) | % Monomer in 1 mg/mL salt solution [4]: 99.7%; BPM MPC1 OXA-48 KP1086 [22]: Z (MIC of greater than 10 μg/mL)
CS(=O)(=O)CC(=O)N[C@H]1Cc2ccc(F)c(C(=O)O)c2OB1O [Compound 9, (R)-7-fluoro-2-hydroxy-3-(2-(methylsulfonyl)acetamido)-3,4-dihydro-2H-benzo[e][1,2]oxaborinine-8-carboxylic acid] | 1 to 10 nM | > 10 nM | Y (key: X: MIC of less than 1 ng/mL; Y: MIC of 1 μg/mL to 10 μg/mL; Z: MIC of greater than 10 μg/mL) | > 10 nM | X (MIC of less than 1 μg/mL) | Y (MIC of 1 μg/mL to 10 μg/mL) | Y (MIC of 1 μg/mL to 10 μg/mL) | Y (MIC of 1 μg/mL to 10 μg/mL) | Y (MIC of 1 μg/mL to 10 μg/mL) | X (key: X: MIC of less than 1 μg/mL; Y: MIC of 1 μg/mL to 10 μg/mL; Z: MIC of greater than 10 μg/mL) | < 1 nM | Y (MIC of 1 μg/mL to 10 μg/mL) | X (MIC of less than 1 μg/mL) | > 10 nM | Z (key: X: MIC of less than 1 ng/mL; Y: MIC of 1 μg/mL to 10 μg/mL; Z: MIC of greater than 10 μg/mL) | Y (key: X: MIC of less than 1 ng/mL; Y: MIC of 1 μg/mL to 10 μg/mL; Z: MIC of greater than 10 μg/mL) | Y (MIC of 1 μg/mL to 10 μg/mL) | X (MIC of less than 1 μg/mL) | > 10 nM | X (key: X: MIC of less than 1 μg/mL; Y: MIC of 1 μg/mL to 10 μg/mL; Z: MIC of greater than 10 μg/mL) | BPM MPC1 OXA-48 KP1086 [22]: Z (MIC of greater than 10 μg/mL)
Nc1nnc(C(=O)N[C@H]2Cc3ccc(F)c(C(=O)O)c3OB2O)s1 [Compound 8, (R)-3-(5-amino-1,3,4-thiadiazole-2-carboxamido)-7-fluoro-2-hydroxy-3,4-dihydro-2H-benzo[e][1,2]oxaborinine-8-carboxylic acid] | < 1 nM | > 10 nM | Y (key: X: MIC of less than 1 ng/mL; Y: MIC of 1 μg/mL to 10 μg/mL; Z: MIC of greater than 10 μg/mL) | > 10 nM | Y (MIC of 1 μg/mL to 10 μg/mL) | Y (MIC of 1 μg/mL to 10 μg/mL) | Y (MIC of 1 μg/mL to 10 μg/mL) | Y (MIC of 1 μg/mL to 10 μg/mL) | Y (MIC of 1 μg/mL to 10 μg/mL) | X (key: X: MIC of less than 1 μg/mL; Y: MIC of 1 μg/mL to 10 μg/mL; Z: MIC of greater than 10 μg/mL) | < 1 nM | Y (MIC of 1 μg/mL to 10 μg/mL) | X (MIC of less than 1 μg/mL) | > 10 nM | Y (key: X: MIC of less than 1 ng/mL; Y: MIC of 1 μg/mL to 10 μg/mL; Z: MIC of greater than 10 μg/mL) | Y (key: X: MIC of less than 1 ng/mL; Y: MIC of 1 μg/mL to 10 μg/mL; Z: MIC of greater than 10 μg/mL) | Y (MIC of 1 μg/mL to 10 μg/mL) | X (MIC of less than 1 μg/mL) | < 1 nM | X (key: X: MIC of less than 1 μg/mL; Y: MIC of 1 μg/mL to 10 μg/mL; Z: MIC of greater than 10 μg/mL) | BPM MPC1 OXA-48 KP1086 [22]: Y (MIC of 1 μg/mL to 10 μg/mL)
